# Publication PMC11356900, “Synthesis, Structural Properties and Biological Activities of Novel Hydrazones of 2-, 3-, 4-Iodobenzoic Acid” (Molecules, 2024)
# Key:
# [1] = tested on: Staphylococcus aureus ATCC 25923; test: Broth microdilution MIC/MBC
# [2] = tested on: Bordetella bronchiseptica ATCC 4617; test: Broth microdilution MIC/MBC; settings: ATCC4617
# Gram-positive bacteria = test: Broth microdilution, summary over reference Gram-positive bacteria; format: cell-based
# Description: (§1) Procedures of in vitro antimicrobial assays are described in Supplementary Materials.
# (§2) 2. Microbiology – in vitro antimicrobial activity assays […]
# (§3) using the broth microdilution method according to the European Committee on Antimicrobial Susceptibility Testing (EUCAST) and Clinical and Laboratory Standards Institute guidelines against a panel of reference and clinical or saprophytic strains of mi croorganisms, including the Gram-positive bacteria: Staphylococcus aureus ATCC 43300 (Methi-cillin Resistant S. aureus – MRSA), Staphylococcus aureus ATCC 29213 (Methicillin Susceptible S. aureus – MSSA), Staph-ylococcus epidermidis ATCC 12228, Micrococcus luteus ATCC 10240, Bacillus subtilis ATCC 6633 and Bacillus cereus ATCC 10876), Gram-negative bacteria: Bordetella bronchiseptica ATCC 4617, Escherichia coli ATCC 25922, Klebsiella pneumoniae ATCC 13883, Proteus mirabilis ATCC 12453, Salmonella typhimurium ATCC 14028 and Pseudomonas aeruginosa ATCC 9027, and fungi belonging to yeasts: Candida albicans ATCC 10231, Candida albicans ATCC 2091, Candida parapsilosis ATCC 22019, Candida glabrata ATCC 90030 and Candida krusei ATCC 14243. The microorganisms belonging to ATCC originated from American Type Culture Collection, routinely used for the evaluation of antimicrobials. All the used microbial cultures were first subcultured on nutrient agar or Sabouraud agar at 35°C for 18-24 h or 30°C for 24-48 h for bacteria […]
# (§4) The surface of Mueller-Hinton agar (for bacteria) and RPMI 1640 with MOPS (for fungi) were inoculated with the suspensions of bacterial or fungal species. Microbial suspensions were prepared in sterile saline with an optical density of McFarland standard scale 0.5. The samples containing the compounds were dissolved in dimethyl sulfoxide (DMSO).
# (§5) Furthermore, the bacterial and fungal suspensions put onto the Petri dishes with solid media containing 2 mg/mL of the tested compounds followed were incubated at 37°C for 24h and 30°C for 48h for bacteria and fungi, respectively.
# (§6) The inhibition of microbial growth was estimated comparing with a control culture prepared without any tested sam- […]
# (§7) antifungal compounds, respectively.
# (§8) Subsequently, MIC (Minimal Inhibitory Concentration) of the compounds was examined by the microdilution broth method, using their two-fold dilutions in Mueller-Hinton broth (for bacteria) and RPMI 1640 broth with MOPS (for fungi) prepared in the 96-well polystyrene plates. The final concentrations of the compounds ranged from 1000 to 0.488 µg/mL. Microbial suspensions were prepared in 0.85% NaCl with an optical density of 0.5 McFarland standard. Next each bacterial or fungal suspension was added per each well containing broth and various concentrations of the exam-ined compounds. After incubation, the MIC was assessed spectrophotometrically as the lowest concentration of the […]
# (§9) Appropriate DMSO, growth and sterile controls were carried out. The medium with no tested substances was used as a control The MBC (Minimal Bactericidal Concentration) and MFC (Minimal Fungicidal Concentration) are defined as the lowest concentration of the compounds that is required to kill a particular bacterial or fungal species. The MBC/MFC was determined by removing the culture used for the MIC determination from each well and spotted onto the appro-priate agar medium. The plates were incubated under appropriate conditions for bacteria and fungi. The lowest com-pounds concentration with no visible growth observed was assessed as a bactericidal/fungicidal concentration. All the experiments were repeated three times and the representative data are presented.
# (§10) 1. European Committee for Antimicrobial Susceptibility Testing (EUCAST) Determination of minimum inhibitory con-centrations (MICs) of antibacterial agents by broth dilution. EUCAST discussion document E. Dis 5.1. Clin. Microbiol.
# (§11) 2. Clinical and Laboratory Standards Institute. Reference method for broth dilution antifungal susceptibility testing of […]
# [3] = tested on: Proteus mirabilis ATCC 12453; test: Broth microdilution MIC/MBC; settings: ATCC12453
# [4] = tested on: Pseudomonas aeruginosa ATCC 9027; test: Broth microdilution MIC/MBC; settings: ATCC9027
# [5] = tested on: Staphylococcus aureus ATCC 29213; test: Broth microdilution MIC/MBC; settings: ATCC29213
# [6] = tested on: Staphylococcus aureus ATCC 43300; test: Broth microdilution MIC/MBC; settings: ATCC43300 / MRSA
# [7] = tested on: Escherichia coli ATCC 25922; test: Broth microdilution MIC/MBC; settings: ATCC25922
# [8] = tested on: Bacillus cereus ATCC 10876; test: Broth microdilution MIC/MBC
# [9] = tested on: Micrococcus luteus ATCC 10240; test: Broth microdilution MIC/MBC
# [10] = tested on: Candida albicans ATCC 2091; test: Broth microdilution MIC/MFC; format: cell-based; settings: for MIC: ATCC2091, read-out: MIC
# Description: as §1, §2, §3, §4, §5, §6, §7, §8, §9, §10, §11
# [11] = tested on: Candida parapsilosis ATCC 22019; test: Broth microdilution MIC/MFC; format: cell-based; settings: Lodderomyces parapsilosis; for MIC: ATCC22019, read-out: MIC; for MFC: ATCC22019, read-out: MFC
# Description: as §1, §2, §3, §4, §5, §6, §7, §8, §9, §10, §11
# [12] = tested on: Candida glabrata ATCC 90030; test: Broth microdilution MIC/MFC; format: cell-based; settings: Nakaseomyces glabratus; for MIC: ATCC90030, read-out: MIC
# Description: as §1, §2, §3, §4, §5, §6, §7, §8, §9, §10, §11
# [13] = tested on: Candida krusei ATCC 14243; test: Broth microdilution MIC/MFC; format: cell-based; settings: Pichia kudriavzevii, ATCC14243, read-out: MIC
# Description: as §1, §2, §3, §4, §5, §6, §7, §8, §9, §10, §11
# [14] = tested on: Candida albicans ATCC 10231; test: Broth microdilution MIC/MFC; format: cell-based; settings: for MIC: ATCC10231, read-out: MIC
# Description: as §1, §2, §3, §4, §5, §6, §7, §8, §9, §10, §11
# [15] = tested on: Bacillus subtilis ATCC 6633; test: Broth microdilution MIC/MBC; settings: ATCC6633
# [16] = tested on: Klebsiella pneumoniae ATCC 13883; test: Broth microdilution MIC/MBC; settings: ATCC13883
# [17] = tested on: Staphylococcus epidermidis ATCC 12228; test: Broth microdilution MIC/MBC; settings: ATCC12228
# [18] = tested on: Salmonella typhimurium ATCC 14028; test: Broth microdilution MIC/MBC; settings: Salmonella enterica
# [19] = Staphylococcus aureus, ATCC25923
SMILES,"MIC [1, 19]",MIC [2],MIC [3],MIC [6],MIC [7],"MIC ([8]; Bacillus cereus, ATCC10876)","MIC ([9]; Micrococcus luteus, ATCC10240)",MIC [15],MIC [16],MIC [17],MIC [18],melting point,MIC [4],MIC [5],"MBC ([9]; Micrococcus luteus, ATCC10240)",MIC [10],MIC [11],MIC [12],MIC [13],MIC [14],other results
"NNC(=O)c1cccc(I)c1 [Compound 5, 3-iodobenzohydrazide]",> 1000 µg/mL,> 1000 µg/mL,> 1000 µg/mL,> 1000 µg/mL,> 1000 µg/mL,> 1000 µg/mL,1000 µg/mL,1000 µg/mL,> 1000 µg/mL,1000 µg/mL,> 1000 µg/mL,134 to 140 °C,> 1000 µg/mL,> 1000 µg/mL,> 1000 µg/mL,> 1000 µg/mL,> 1000 µg/mL,> 1000 µg/mL,> 1000 µg/mL,> 1000 µg/mL,MIC (Gram-positive bacteria): 31.2 to 1000 µg/mL; MBC [15]: > 1000 µg/mL; MBC [17]: > 1000 µg/mL
"O=C(N/N=C/c1cccc([N+](=O)[O-])c1O)c1cccc(I)c1 [Compound 15, N-[(2-hydroxy-3-nitrophenyl)methylidene]-3-iodobenzohydrazide]",250 µg/mL,> 1000 µg/mL,> 1000 µg/mL,1000 µg/mL,> 1000 µg/mL,125 µg/mL,31.2 µg/mL,125 µg/mL,> 1000 µg/mL,31.2 µg/mL,> 1000 µg/mL,190 to 199 °C,> 1000 µg/mL,250 µg/mL,125 µg/mL,> 1000 µg/mL,> 1000 µg/mL,> 1000 µg/mL,> 1000 µg/mL,> 1000 µg/mL,"MBC [1, 19]: > 1000 µg/mL; MIC (Gram-positive bacteria): 31.2 to 500 µg/mL; MBC [5]: > 1000 µg/mL; MBC [6]: > 1000 µg/mL; MBC ([8]; Bacillus cereus, ATCC10876): 250 µg/mL; MBC [15]: 500 µg/mL; MBC [17]: 125 µg/mL"
"O=C(N/N=C/c1cc(Cl)cc(Cl)c1O)c1cccc(I)c1 [Compound 17, N-[(3,5-dichloro-2-hydroxyphenyl)methylidene]-3-iodobenzohydrazide]",31.2 µg/mL,> 1000 µg/mL,> 1000 µg/mL,15.6 µg/mL,> 1000 µg/mL,15.6 µg/mL,15.6 µg/mL,7.81 µg/mL,> 1000 µg/mL,15.6 µg/mL,> 1000 µg/mL,210 to 212 °C,> 1000 µg/mL,15.6 µg/mL,15.6 µg/mL,> 1000 µg/mL,> 1000 µg/mL,> 1000 µg/mL,> 1000 µg/mL,> 1000 µg/mL,"MBC [1, 19]: 31.2 µg/mL; MIC (Gram-positive bacteria): 7.81 to 31.2 µg/mL; MBC [5]: 15.6 µg/mL; MBC [6]: 15.6 µg/mL; MBC ([8]; Bacillus cereus, ATCC10876): 15.6 µg/mL; MBC [15]: 15.6 µg/mL; MBC [17]: 62.5 µg/mL"

# Further lines, with some results ahead:
"MIC [1, 19]",MIC [2],MIC [3],MIC [6],MIC [7],"MIC ([8]; Bacillus cereus, ATCC10876)","MIC ([9]; Micrococcus luteus, ATCC10240)",MIC [15],MIC [16],MIC [17],MIC [18],SMILES,melting point,MIC [4],MIC [5],"MBC ([9]; Micrococcus luteus, ATCC10240)",MIC [10],MIC [11],MIC [12],MIC [13],MIC [14],other results
> 1000 µg/mL,> 1000 µg/mL,> 1000 µg/mL,> 1000 µg/mL,> 1000 µg/mL,> 1000 µg/mL,500 µg/mL,1000 µg/mL,> 1000 µg/mL,1000 µg/mL,> 1000 µg/mL,"NNC(=O)c1ccc(I)cc1 [Compound 6, 4-iodobenzohydrazide]",161 to 162 °C,> 1000 µg/mL,> 1000 µg/mL,> 1000 µg/mL,> 1000 µg/mL,250 µg/mL,> 1000 µg/mL,> 1000 µg/mL,> 1000 µg/mL,MFC [11]: > 1000 µg/mL; MBC [15]: > 1000 µg/mL; MBC [17]: > 1000 µg/mL
> 1000 µg/mL,> 1000 µg/mL,> 1000 µg/mL,> 1000 µg/mL,> 1000 µg/mL,> 1000 µg/mL,500 µg/mL,500 µg/mL,> 1000 µg/mL,> 1000 µg/mL,> 1000 µg/mL,"O=C(N/N=C/c1cc(Cl)cc(Cl)c1O)c1ccc(I)cc1 [Compound 24, N-[(3,5-dichloro-2-hydroxyphenyl)methylidene]-4-iodobenzohydrazide]",281 to 284 °C,> 1000 µg/mL,1000 µg/mL,> 1000 µg/mL,1000 µg/mL,1000 µg/mL,250 µg/mL,> 1000 µg/mL,500 µg/mL,"MBC [5]: > 2000 µg/mL; MFC ([10]; ATCC2091, read-out: MFC): > 1000 µg/mL; MFC [11]: > 1000 µg/mL; MFC ([12]; ATCC90030, read-out: MFC): > 1000 µg/mL; MFC ([14]; ATCC10231, read-out: MFC): > 1000 µg/mL; MBC [15]: > 1000 µg/mL"
> 1000 µg/mL,> 1000 µg/mL,> 1000 µg/mL,> 1000 µg/mL,> 1000 µg/mL,> 1000 µg/mL,31.2 µg/mL,> 1000 µg/mL,> 1000 µg/mL,1000 µg/mL,> 1000 µg/mL,"CCOc1cccc(/C=N/NC(=O)c2ccc(I)cc2)c1O [Compound 25, N-[(3-ethoxy-2-hydroxyphenyl)methylidene]-4-iodobenzohydrazide]",200 to 207 °C,> 1000 µg/mL,> 1000 µg/mL,62.5 µg/mL,> 1000 µg/mL,250 µg/mL,> 1000 µg/mL,> 1000 µg/mL,> 1000 µg/mL,MFC [11]: > 1000 µg/mL; MBC [17]: > 1000 µg/mL
15.6 µg/mL,125 µg/mL,62.5 µg/mL,7.81 µg/mL,7.81 µg/mL,7.81 µg/mL,62.5 µg/mL,3.91 µg/mL,15.6 µg/mL,3.91 µg/mL,31.2 µg/mL,"O=C1CN(/N=C/c2ccc([N+](=O)[O-])o2)C(=O)N1 [NIT, nitrofurantoin, reference compound]",–,–,–,62.5 µg/mL,–,–,–,–,–,"MIC ([1]; Staphylococcus aureus ATCC 25923): 15.62 (15.62) µg/mL; MBC [1, 19]: 15.6 µg/mL; MBC ([8]; Bacillus cereus ATCC 10876): 15.62 µg/mL; MBC ([8]; Bacillus cereus, ATCC10876): 15.6 µg/mL; MIC ([9]; Micrococcus luteus ATCC 10240): 62.5 (62.5) µg/mL; MBC [15]: 3.91 µg/mL; MBC [17]: 7.81 µg/mL"
